Experimental data published in PMC10799918, “Revealing the mechanistic interactions of profenofos and captan pesticides with serum protein via biophysical and computational investigations” (Scientific Reports, 2024).

Molecular target: T1, bovine serum albumin (BSA) (Bos taurus, UniProt P02769)
T1 construct: gene ALB; PDB 4F5S used for docking only
Experiment: intrinsic fluorescence quenching (ex […] nm, em […] nm), double-logarithmic plot
Type: binding
Conditions: 310 K, pH 7.4, 10 mM Tris-HCl, 150 mM NaCl, 2 uM BSA, 0.1% acetonitrile, no site probe; double-log

T1 sequence (P02769 25-607): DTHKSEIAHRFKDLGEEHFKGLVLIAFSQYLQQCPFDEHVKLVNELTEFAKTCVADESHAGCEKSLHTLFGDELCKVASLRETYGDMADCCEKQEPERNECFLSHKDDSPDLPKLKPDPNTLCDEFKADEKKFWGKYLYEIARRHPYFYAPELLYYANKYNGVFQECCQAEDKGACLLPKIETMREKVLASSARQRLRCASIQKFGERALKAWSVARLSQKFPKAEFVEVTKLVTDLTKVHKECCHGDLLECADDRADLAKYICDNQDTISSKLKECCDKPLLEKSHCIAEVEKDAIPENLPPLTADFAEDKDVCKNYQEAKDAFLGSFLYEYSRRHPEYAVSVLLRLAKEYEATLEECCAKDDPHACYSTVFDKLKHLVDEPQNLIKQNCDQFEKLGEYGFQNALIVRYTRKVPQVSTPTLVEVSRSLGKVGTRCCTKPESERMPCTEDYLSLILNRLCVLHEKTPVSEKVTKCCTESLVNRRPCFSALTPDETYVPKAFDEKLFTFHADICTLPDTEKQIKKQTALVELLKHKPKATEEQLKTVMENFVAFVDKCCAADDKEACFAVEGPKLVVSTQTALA

| Compound | Ka | Ka (M^-1) |
| --- | --- | --- |
| CCCSP(=O)(OCC)Oc1ccc(Br)cc1Cl (centres unmarked) [compound 1, 4-bromo-2-chloro-1-[ethoxy(propylsulfanyl)phosphoryl]oxybenzene] | 3897 ± 1.49 M⁻¹ | – |
| O=C1C2CC=CCC2C(=O)N1SC(Cl)(Cl)Cl (centres unmarked) [compound 2, 2-(trichloromethylsulfanyl)-3a,4,7,7a-tetrahydroisoindole-1,3-dione] | – | 14,581 ± 1.40 M^-1 |
